Data as given in paper PMC6522941, “Design, synthesis, and anticancer evaluation of novel quinoline derivatives of ursolic acid with hydrazide, oxadiazole, and thiadiazole moieties as potent MEK inhibitors” (Journal of Enzyme Inhibition and Medicinal Chemistry, 2019).

Tested on: Cytochrome c, Bax, Bcl-2, Caspase-3, Caspase-9 in HeLa cells
Test: Western blot of mitochondrial apoptosis markers
Type: cell-based, human
Settings: 0.1 and 0.2 μM, 48 h
Procedure: HeLa cells were seeded at a density of 5 × 10^6 cells per well and attached for 8 h, and then treated with different concentrations of compound 4d for 48 h. After the treatment, the cells were harvested and washed twice with PBS. The harvested cells were lysed with radio-immunoprecipitation assay (RIPA) lysis buffer (Beyotime Biotech., Nantong, China) with 1% cocktail (Sigma-Aldrich, St. Louis, MO, USA). Whole-cell protein lysates were prepared and centrifuged at 12,000 rpm for 10 min at 4 °C. The total proteins were determined using Bradford reagent (Bio-Rad Laboratories, Inc., Hercules, CA, USA). Exactly 40 μg of protein per lane was separated through sodium dodecyl sulphate-polyacrylamide gel electrophoresis and then transferred onto a polyvinylidene difluoride membrane (Millipore, Bedford, MA, USA). The membranes were incubated with each antibody and detected through immunoblot analysis. All of the antibodies were purchased from Cell signalling Technology, Inc. (Boston, MA, USA) and diluted in accordance with the manufacturer’s instruction. Proteins were visualised using a C-Digit® imaging system (LI-COR, Lincoln, NE, USA).
To further explore whether compound 4d induced apoptosis via the mitochondrial signalling pathway, a number of key protein markers involved in mitochondria-mediated apoptosis were examined by Western blot analysis. The Bcl-2 family members are important regulators of the mitochondrial apoptotic pathway. Two most important members of Bcl-2 family, the anti-apoptotic protein Bcl-2 and the pro-apoptotic protein Bax, are key regulators of this progress. As shown in Figure 6(a), the expression level of Bax was elevated in HeLa cells compared with the control group, whereas the expression level of Bcl-2 was decreased after treatment with compound 4d for 48 h. […] Moreover, cytochrome c is reported as a key protein involved in the activation of the downstream caspases that trigger apoptosis. Caspases are a family of cysteinyl aspartate-specific proteases involved in apoptosis, which can be classified into groups of initiators (caspases 8, 9, and 10) and executioners (caspases 3, 6, and 7)[48]^,[49]. In this assay, we also examined the roles of cytochrome c, caspase-3, and caspase-9 in the cellular response to compound 4d.

CC(=O)NNC(=O)C12CCC(C)C(C)C1C1=CCC3C4(C)Cc5cc6cc(Cl)ccc6nc5C(C)(C)C4CCC3(C)C1(C)CC2 (stereo not drawn) [Compound 4d, N-[5′-chloro-ursa-12-en-(2,3)-quinoline-28-oyl]-acetohydrazide]
level of caspase-3: significantly increased
level of caspase-9: significantly increased
ratio of Bax/Bcl-2: increased in a dose-dependent manner
expression level of Bax (compared with control): elevated
expression level of Bcl-2 (compared with control): decreased
level of cytochrome c (cytosol): significantly increased
